For data set [1] the following is noted: cited from earlier work. An excerpt:
As the major sensory and vasodilator neuropeptides, PACAP38 and VIP are involved in parasympathetic communication with the cranial vasculature. Abnormal activation and sensitization of the central trigeminovascular pain pathway mediate migraine and the release of these peptides.[5]

The subject of data set [2] is PAC1R construct used in the cryo-EM studies. The format is cell-based, human. The note with it: cAMP, BacMam CHO-K1, pH 7.4, 30 min 37 °C, average ± SD, N=3.
Experimental: WT PAC1R and mutations used in the functional assay were cloned into pJIF1.1 for BacMam virus generation.
CHO-K1 cells were cultured in DMEM supplemented with 10% FBS and infected with BacMam viruses with a MOI of 100. 24 h after infection, cells were collected for membrane preparation or functional assay.
Activation of WT PAC1R and mutants was measured based on intracellular cAMP levels using Lance Ultra cAMP kit (PerkinElmer) according to the manufacturer’s protocol. […] Then 5 µL of 4× Eu-cAMP and 5 µL of 4× Ulight-Anti-cAMP working solutions were added to each well and incubated at room temperature for 60 min before reading with Envision (PerkinElmer). All signals (ratio of 665 nm/615 nm) were fit with a sigmoidal dose-response model using GraphPad Prism 7.
Both the average and S.D.
are calculated based 3 rounds of independent assays in 3 different days (N=3), and on each
day, duplicates were run for each dose on dose response curves.
# Ratio to WT is calculated as EC50 of mutation to EC50 of WT.
† The best-fit value of pEC50 from 3 different assays was used to calculate p value in T-test,
between WT and each mutation, with 2-tailed and equal variance (homoscedastic).

As usually defined, the pEC50 is −log10 of the EC50, conventionally taken in molar units. Low readings indicate a high EC50, high ones a low EC50.

Read-outs that look alike come from different tables or passages of the source.

`CC[C@H](C)[C@H](NC(=O)CNC(=O)[C@H](CC(=O)O)NC(=O)[C@H](CO)NC(=O)[C@@H](N)Cc1cnc[nH]1)C(=O)N[C@@H](Cc1ccccc1)C(=O)N[C@H](C(=O)N[C@@H](CC(=O)O)C(=O)N[C@@H](CO)C(=O)N[C@@H](Cc1ccc(O)cc1)C(=O)N[C@@H](CO)C(=O)N[C@@H](CCCNC(=N)N)C(=O)N[C@@H](Cc1ccc(O)cc1)C(=O)N[C@@H](CCCNC(=N)N)C(=O)N[C@@H](CCCCN)C(=O)N[C@@H](CCC(N)=O)C(=O)N[C@@H](CCSC)C(=O)N[C@@H](C)C(=O)N[C@H](C(=O)N[C@@H](CCCCN)C(=O)N[C@@H](CCCCN)C(=O)N[C@@H](Cc1ccc(O)cc1)C(=O)N[C@@H](CC(C)C)C(=O)N[C@@H](C)C(=O)N[C@@H](C)C(=O)N[C@H](C(=O)N[C@@H](CC(C)C)C(=O)NCC(=O)N[C@@H](CCCCN)C(=O)N[C@@H](CCCNC(=N)N)C(=O)N[C@@H](Cc1ccc(O)cc1)C(=O)N[C@@H](CCCCN)C(=O)N[C@@H](CCC(N)=O)C(=O)N[C@@H](CCCNC(=N)N)C(=O)N[C@H](C(=O)N[C@@H](CCCCN)C(=O)N[C@@H](CC(N)=O)C(=O)N[C@@H](CCCCN)C(N)=O)C(C)C)C(C)C)C(C)C)[C@@H](C)O` [PACAP38, pituitary adenylate cyclase-activating polypeptide]: the “induction of delayed migraine-like headaches” value in data set [1] (in vivo, iv) was “induces delayed migraine-like headaches”. In data set [2], this molecule showed a pEC50 of 9.71 ± 0.21.
For the molecule vasoactive intestinal polypeptide [VIP], in data set [1] (intravenous infusion), the “induction of delayed migraine-like headaches” value was “but not VIP induces delayed migraine-like headaches”.

Source of the values: publication PMC7196072, “Cryo-EM structures of PAC1 receptor reveal ligand binding mechanism” (Cell Research, 2020).
